Laboratory results: patent publication US20220323471A1 (priority 2019, published 2022)
“Also recorded” adds a separate entry of the source. Read-outs that look alike come from different tables or passages of the source.

Experiments:
ZIKV-RVP = format: cell-based, Zika virus; settings: VERO, HT1080, CHME3 cells; MOI 0.5; 48 hours
TBEV-RVP = format: cell-based, tick-borne encephalitis virus
WNV-RVP = format: cell-based, West Nile virus; settings: VERO cells; DGP 1 μM; NH4Cl 20 mM
JEV-RVP = format: cell-based, Japanese encephalitis virus; settings: VERO cells; DGP 1 μM; NH4Cl 20 mM
Sendai Virus (SeV) = test: Sendai Virus infection and IFN-β production in CHME3 cells; format: cell-based; settings: SeV MOI 1 and 10, DGP 1 μM, NH4Cl 20 mM
Protocol: The Flaviviridae family of viruses encode a glycoprotein that is necessary to achieve fusion at the endosomal/lysosomal membranes, the step that releases viral components into the cytoplasm. […] Instead, SeV fuses at the plasma membrane. To this end, IFN-β production and viral infection were measured in CHME3 cells infected with SeV at an MOI 1 and 10 in the presence of DGP (1 μM) or 20 mM NH4Cl.
(§1) To detect viral copies of ZIKV and Sendai Virus (SeV) by qRT-PCR, cells were seeded in 24-well plates, with or without DGP treatment, and infected with the virus at the indicated MOI for 48 h. After the incubation period, total RNA from HT1080, VERO, and CHME3 cells was isolated and purified using Trizol (Invitrogen). For detection of ZIKV viral load in brain and spleen, 3 mice were sacrificed at 6 days post-infection and total RNA was extracted from the brain and spleen. For cDNA synthesis, 1 ng of total RNA was reverse transcribed. The reaction mixture included 1 mM of deoxyribonucleotide phosphates (dNTPs), 2 nM of the specific reverse primer of ZIKV or SeV, 1× M-MULV buffer, 10 U M-MuLV RT (BioLabs), and 2 U of RNase Inhibitor. The reaction mixture was incubated for 1 hour at 42° C. followed by 20 min at 65° C. to inactivate the enzyme. For actin detection, Oligo-dT was used to reverse transcribe total RNA.
ZIKV RNA levels were measured using real-time PCR. HT1080 and VERO cells were challenged by ZIKV MR766 at an MOI of 1 in the presence of DGP. At 48 hours post-challenge, cells were lysed and total RNA was extracted using trizol. Total RNA was used to determine the levels of ZIKV RNA by real-time PCR using specific primers against ZIKA. qRT-PCR was carried out using SYBR green in a 20-μl final volume using a MASTERCYCLER proS machine. The primers used to detect ZIKV were: SEQ ID NO. 1: 5′-TT […]-3′-Forward (Genome Position 941-964) and SEQ ID NO. 2: 5′-[…]-3′-Reverse (Genome position 1123-1103) (AY632535.2). For the detection of SeV, the following primers were used: SEQ ID NO. 3: 5′-[…]-3′-Forward (Genome position 210-233) and SEQ ID NO. 4: 5′-[…]-3′-Reverse (Genome position 332-307) (M30202. Genome position 210-332) (Wagner, A. M. et al. 2003, “Detection of sendai virus and pneumonia virus of mice by use of fluorogenic nuclease reverse transcriptase polymerase chain reaction analysis.” Comp Med 53(2): 173-177). For the detection of IFN-β the following primers were used: SEQ ID NO. 5: Forward 5-[…]-3′ (Genome position 644-668) and SEQ ID Na 6: Reverse 5′-[…]-3′ (Genome position 718-697) (NM_002176.2) and for actin detection: SEQ ID NO. 7: 5′-[…]-′3-Forward and SEQ ID NO. 8: 5′-[…]′3-Reverse. ZIKA viral RNA levels were normalized to actin (upper panels). […]

ZIKV strain MR766 [1] = test: ZIKV-induced mortality in Ifnar1−/− mice; format: in vivo, mouse (C57BL/6 Ifnar1−/−)
ZIKV = ZIKV viral load in brain and spleen of challenged mice (qRT-PCR); format: in vivo, mouse; settings: 1 mg/kg; six days post-challenge
Protocol: The effect of DGP on viral replication in the brain and spleen was investigated in ZIKV-challenged mice (FIG. 13). To this end, viral loads were determined by qRT-PCR using specific primers against the ZIKV genome six days post-challenge.
as §1

[2] = tested on: endosomes and lysosomes of HT1080 cells; test: Acridine Orange fluorescence, endosomal/lysosomal acidification; format: cell-based, human; settings: 4 hours pre-incubation, DGP, diphyllin, 6DG 2, 1 or 0.1 μM, Bafilomycin 100 nM, NH4Cl 25 mM
Protocol: To determine whether DGP inhibited ZIKV infection by preventing the acidification of endosomes and lysosomes, Acridine Orange (AO) was used, a cell-permeable fluorescent dye marker that accumulates in low pH compartments such as endosomes and lysosomes.
HT1080 cells were pre-incubated for 4 hours with the Bafilomycin (FIG. 10A, 100 nM), NH4Cl (FIG. 10A, 25 mM), DGP (FIG. 10B: 2 μM, 1 μM, or 0.1 μM) diphyllin (FIG. 10C: 2 μM, 1 μM, or 0.1 μM), or 6DG (FIG. 10C: 2 μM, 1 μM, or 0.1 μM) to test whether DGP prevents endosomal/lysosomal acidification. After staining the cells with 1 μg/mL of AO, changes in fluorescence were measured using a Celesta flow cytometer on the PerCP-Cy5-5-A channel. A shift in the AO fluorescence is indicated with an arrow in FIGS. 10A-10D.
Acridine Orange (Invitrogen) staining was performed as described previously (Kanzawa, T. et al. 2004, “Role of autophagy in temozolomide-induced cytotoxicity for malignant glioma cells.” Cell Death Differ 11(4): 448-457). Cells were stained with 1 μg/mL AO in 10% FBS DMEM for 30 min at 37° C. and then collected by trypsinization. Changes in fluorescence were measured using a Celesta flow cytometer in the PerCP-Cy5-5-A channel.

ZIKV strain MR766 [3] = test: ZIKV strain MR766 infection, 4G2 antibody flow cytometry; settings: for IC50: Zika virus

In the case of `COc1cc2c(OC3OC(C)C(O)C(O)C3O)c3c(c(-c4ccc5c(c4)OCO5)c2cc1OC)C(=O)OC3` (centres unmarked) [DGP, 6-deoxyglucose-diphyllin], the “concentration at which ZIKV-RVP infection was substantially inhibited” value (ZIKV-RVP) is reported as 0.25 to 0.50 µM, the “TBEV RVP infection” value (TBEV-RVP) is reported as “almost undetectable” and the “WNV RVP infection” value (WNV-RVP) is reported as “almost undetectable”. For the same compound, the “JEV RVP infection” value (JEV-RVP) was “almost undetectable”, the “IFN-β production in SeV-infected cells” value (Sendai Virus (SeV)) was “did not inhibit; also recorded: increased induction” and the “SeV infection / viral replication” value (Sendai Virus (SeV)) was “does not inhibit; also recorded: increased viral replication”. For the same compound, the percent survival (ZIKV strain MR766 [1]; 0.1 mg/kg and 0.2 mg/kg dose (FIG. 8A)) was “improved”, the “body weight of surviving mice” value (ZIKV strain MR766 [1]; 0.2 mg/kg and 1 mg/kg (FIGS. 8B and 8D)) was “able to regain lost body weight” and the survival (ZIKV strain MR766 [1]; 1 mg/kg (FIG. 8C)) was 100%. The “time at which group succumbed to viral infection” value (ZIKV strain MR766 [1]; ZIKV + 0.1 mg/kg, footpad co-injection) was 10 days post-challenge, the appearance of symptoms (ZIKV strain MR766 [1]; ZIKV + 0.2 mg/kg, compared with ZIKV group) was “delay in the appearance of symptoms” and the survival (ZIKV strain MR766 [1]; ZIKV + 0.2 mg/kg, footpad co-injection) was “some mice survived until day 14”. The disease symptoms (ZIKV strain MR766 [1]; ZIKV + 1 mg/kg) was “did not show any obvious disease symptoms”, the body weight (ZIKV strain MR766 [1]; ZIKV + 1 mg/kg compared to PBS + 1 mg/kg of DGP) was “lower body weights” and the “mice surviving for the length of the experiment” value (ZIKV strain MR766 [1]; ZIKV + 1 mg/kg, 15 post-challenge days, 6 mice/group) was “all six mice”. The “viral replication in the brain” value (ZIKV) was “completely inhibited”, the “viral replication in the spleen” value (ZIKV) was “low levels of viral replication were detected” and the “acidification of endosomes and lysosomes (AO fluorescence)” value [2] was “decreased AO fluorescence”. The “percentage of 4G2-positive cells” value (ZIKV strain MR766 [3]; CHME3 cells, MOI 1, DGP 0.1 and 1 μM, NH4Cl 20 mM, 48 hours) was “substantial decrease”, the “potency of DGP relative to diphyllin” value (ZIKV strain MR766 [3]; HT1080 and CHME3 cells) was 3-5 fold and the “concentration giving substantial inhibition of ZIKV infection” value (ZIKV strain MR766 [3]; VERO, HT1080, CHME3 cells, MOI 1, 48 hours) was 0.25 to 0.50 µM. For the same compound, the IC50 (ZIKV strain MR766 [3]; HT-1080, read-out: IC50, ZIKV infection) was 20 nM and the IC50 (ZIKV strain MR766 [3]; read-out: IC50, ZIKV infection) was 40 nM.
